Source: US20090104145A1, “Mixtures of Anthranilamide Invertebrate Pest Control Agents” (priority 2004, published 2009)

What was measured:
Assay in all cases: whole plant or invertebrate
Type in all cases: in vivo
[1] = system: potato leafhopper (Empoasca fabae Harris); conditions: Compound 1 0 ppm
Experimental: (§1) The pest control protection afforded by the mixtures or compositions is not limited, however, to these species. The analysis of synergism or antagonism between the mixtures or compositions was determined using Colby's equation. The average % mortality data for the test compounds alone were inserted into the Colby's equation. If the observed average % mortality was higher than “p”, the expected % mortality, the mixture or composition had synergistic effects. If the observed average % mortality was equal to or lower than the expected mortality, the mixture or composition either had no synergistic effect or an antagonistic effect. In these tests, Compound 1 is the compound of Formula 1.
(§2) Test compounds were formulated using a solution containing 10% acetone, 90% water and 300 ppm X-77® Spreader Lo-Foam Formula non-ionic surfactant containing alkylarylpolyoxyethylene, free fatty acids, glycols and isopropanol (Loveland Industries, Inc.) to provide the desired concentration in ppm. Formulated test solutions were then applied in 1 mL volumes through a SUJ2 atomizer nozzle with ⅛ JJ custom body (Spraying Systems Co.) positioned 1.27 cm (0.5 inches) above the top of each test unit.
For evaluating control of potato leafhopper (Empoasca fabae Harris) through contact and/or systemic means, each test unit consisted of a small open container with a 5- to 6-day-old Longio bean plant (primary leaves emerged) inside. White sand was added to the top of the soil, and one of the primary leaves was excised prior to application. Test compounds were formulated and sprayed with 3 replications as described for Test A. After spraying, the test units were allowed to dry for 1 hour before they were infested with 5 potato leafhoppers (18- to 21-day-old adults). A black, screened cap was placed on the top of each container. The test units were held for 6 days in a growth chamber at 19-21° C. and 50-70% relative humidity.

[2] = system: green peach aphid (Myzus persicae Sulzer); conditions: Myzus persicae, in Raphanus sativus, read-out: % Mortality (observed)
Experimental: as §1, §2
For evaluating control of green peach aphid (Myzus persicae Sulzer) through contact and/or systemic means, each test unit consisted of a small open container with a 12- to 15-day-old radish plant inside. This was pre-infested by placing on a leaf of the test plant 30 to 40 aphids on a piece of leaf excised from a culture plant (cut-leaf method). The larvae moved onto the test plant as the leaf piece desiccated. After pre-infestation, the soil of the test unit was covered with a layer of sand.
Test compounds were formulated and sprayed as described in Test A, replicated three times. After spraying of the formulated test compound, each test unit was allowed to dry for 1 hour and then a black, screened cap was placed on top. The test units were held for 6 days in a growth chamber at 19-21° C. and 50-70% relative humidity.

[3] = system: silverleaf whitefly (Bemisia argentifolii Bellows and Perring); conditions: Table 2B; rate 10 ppm, compound alone
Experimental: as §1
For evaluating control of silverleaf whitefly (Bemisia argentifolii Bellows and Perring) through contact and/or systemic means, each test unit consisted of a small open container with a 12- to 14-day-old cotton plant inside. This was pre-infested by placing test units into cages infested with adult whiteflies so that oviposition on the cotton leaves could occur. The adults were removed from the plants with an air-blast nozzle, and the test units were capped. The test units were then stored 2 to 3 days before spraying.
as §2
The results for all experimental compositions in this test were replicated three times. After spraying of the formulated test composition, each test unit was allowed to dry for 1 hour and the cap removed. The test units were held for 13 days in a growth chamber at 28° C. and 50-70% relative humidity.

[4] = system: corn planthopper (Pereginus maidis); conditions: rate 0.4 ppm
Experimental: as §1, §2
For evaluating control of corn planthopper (Pereginus maidis) through contact and/or systemic means, each test unit consisted of a small open cylindrical container with a 3- to 4-day-old corn (maize) plant (spike) inside. White sand was added to the top of the soil prior to application. Test compounds were formulated and sprayed with 3 replications as described for Test A. After spraying, the test units were allowed to dry for 1 hour before they were post-infested with 10 to 20 corn planthoppers (18- to 20-day-old nymphs) by sprinkling them onto the sand with a salt shaker. A black, screened cap was placed on the top of each container. The test units were held for 6 days in a growth chamber at 19-21° C. and 50-70% relative humidity.

[5] = system: cotton melon aphid (Aphis gossypii Glover); conditions: rate 2 ppm
Experimental: as §1, §2
For evaluating control of cotton melon aphid (Aphis gossypii Glover) through contact and/or systemic means, each test unit consisted of a small open container with a 6- to 7-day-old cotton plant inside. This was pre-infested by placing on a leaf of the test plant 30 to 40 aphids on a piece of leaf excised from a culture plant (cut-leaf method). The larvae moved onto the test plant as the leaf piece desiccated. After pre-infestation, the soil of the test unit was covered with a layer of sand.
Test compounds were formulated and sprayed as described for Test A. The applications were replicated three times. After spraying of the formulated test compounds, each test unit was allowed to dry for 1 hour and then a black, screened cap was placed on top. The test units were held for 6 days in a growth chamber at 19-21° C. and 50-70% relative humidity.

Row | Compound | % Mortality (observed) ([1]; Imidacloprid 0.4 ppm) | % Mortality (observed) ([1]; Imidacloprid 1.4 ppm) | % Mortality (observed) ([1]; Imidacloprid 4.6 ppm) | mortality at 0.3 ppm [2] | % mortality (obs) [3] | % mortality (obs) [4] | % mortality (obs) [5]
1 | O=[N+]([O-])NC1=NCCN1Cc1ccc(Cl)nc1 [Imidacloprid, imidacloprid] | 20% | 0% | 20% | 50% |  |  | 
2 | dinotefuran |  |  |  |  | 74% | 86% | 64%
